Assay results taken from article PMC9179928 (Journal of medicinal chemistry, 2021).

Assays:
[1] = tested on: EV-D68 and EV-A71 strains; experiment: organism not typed; assay type: cell-based; settings: for EC50: RD, read-out: EC50 values against all EV-D68 and EV-A71 strains tested; for selectivity index over all EV-D68 and EV-A71 strains tested: strains of Table 2, RD cells
EV-D68 US/KY/14-18953 = experiment: CPE assay, EV-D68 US/KY/14-18953 in RD cells; assay type: cell-based, enterovirus D68; settings: vs 7a
EV-D68 US/MO/14-18947 [2] = experiment: Plaque assay, EV-D68 US/MO/14-18947 in RD cells; assay type: cell-based, enterovirus D68; settings: at 3 μM, positive control
EV-D68 2C-D183V mutant = assay type: binding; settings: 7d at 100 μM
EV-D68 2C-D323G mutant = assay type: binding; settings: 7d at 100 μM
EV-A71 2C protein = assay type: binding; settings: 7d at 10, 30, 100 and 300 μM
CVB3 2C protein = CVB3 2C protein (Coxsackievirus B3, UniProt P03313); assay type: binding; settings: 7d at 10, 30, 100 and 300 μM
[3] = tested on: EV-D68 2C-D183V/D323G double mutant; assay type: binding; settings: 7d at 100 μM
EV-D68 US/MO/14-18947 [4] = experiment: Immunofluorescence assay; assay type: cell-based, enterovirus D68; settings: at 50 μM, SH-SY5Y cells, positive control

Compound	EC50 [1] [nM]	improvement in antiviral efficacy compared to the original hit 7a against EV-D68 virus (EV-D68 US/KY/14-18953)	also measured
Cc1cc(C(=O)NCCN(C)C)c2c(C)nn(C(C)(C)C)c2n1 [compound 19, 1-tert-butyl-N-[2-(dimethylamino)ethyl]-3,6-dimethyl-1H-pyrazolo[3,4-b]pyridine-4-carboxamide]	400 to 7400	–	–
CC(C)n1ncc2c(C(=O)NC3CCN(C)C3)cc(C3CC3)nc21 (stereo not drawn) [7g, 6-cyclopropyl-N-(1-methylpyrrolidin-3-yl)-1-(propan-2-yl)-1H-pyrazolo[3,4-b]pyridine-4-carboxamide]	–	more than 100 fold	–
CCC[C@H](NC(=O)[C@@H]1[C@H]2CCC[C@H]2CN1C(=O)[C@@H](NC(=O)[C@@H](NC(=O)c1cnccn1)C1CCCCC1)C(C)(C)C)C(=O)C(=O)NC1CC1 [Telaprevir]	–	–	inhibition of plaque formation (EV-D68 US/MO/14-18947 [2]): complete inhibition of plaque formation
CC(C)n1ncc2c(C(=O)NCCN(C)C)cc(C3CC3)nc21 [7d, 6-cyclopropyl-N-[2-(dimethylamino)ethyl]-1-(propan-2-yl)-1H-pyrazolo[3,4-b]pyridine-4-carboxamide]	40 to 100	more than 100 fold	ΔTm, 2C-D183V mutant (EV-D68 2C-D183V mutant): 0.01 °C; ΔTm, 2C-D323G mutant (EV-D68 2C-D323G mutant): 3.92 °C; binding to EV-A71 2C protein (EV-A71 2C protein): dose-dependent binding; binding to CVB3 2C protein (CVB3 2C protein): dose-dependent binding; ΔTm, 2C-D183V/D323G double mutant [3]: 0.61 °C
CNCCNC(=O)c1cc(C2CC2)nc2c1cnn2C(C)C [7h, 6-cyclopropyl-N-[2-(methylamino)ethyl]-1-(propan-2-yl)-1H-pyrazolo[3,4-b]pyridine-4-carboxamide]	60 to 300	more than 100 fold	selectivity index over all EV-D68 and EV-A71 strains tested [1]: over 700
CC(CN(C)C)NC(=O)c1cc(C2CC2)nc2c1cnn2C(C)C (stereo not drawn) [7f, 6-cyclopropyl-N-[1-(dimethylamino)propan-2-yl]-1-(propan-2-yl)-1H-pyrazolo[3,4-b]pyridine-4-carboxamide]	–	more than 100 fold	–
CC(C)c1cc(C(=O)NCCN(C)C)c2cnn(C(C)C)c2n1 [10a, N-[2-(dimethylamino)ethyl]-1,6-bis(propan-2-yl)-1H-pyrazolo[3,4-b]pyridine-4-carboxamide]	60 to 300	–	selectivity index over all EV-D68 and EV-A71 strains tested [1]: over 700
CC(C)n1ncc2c(C(=O)NCCN3CCCC3)cc(C3CC3)nc21 [7b, 6-cyclopropyl-1-(propan-2-yl)-N-[2-(pyrrolidin-1-yl)ethyl]-1H-pyrazolo[3,4-b]pyridine-4-carboxamide]	–	more than 100 fold	–
Cc1cc(CCCOc2c(C)cc(-c3noc(C(F)(F)F)n3)cc2C)on1 [pleconaril]	–	–	viral replication (VP1 fluorescence signal) (EV-D68 US/MO/14-18947 [4]): completely abolished viral replication
